# Test system: differentiated 3T3-L1 (WT) cells
# Assay: Glucose uptake (Glucose Uptake-Glo) in WT adipocytes
# Assay type: cell-based, murine
# Conditions: RO-3306 (10 μM) co-treated with AZD3965 (1 μM)
# Procedure: Glucose Uptake: 3T3-L1 cells were seeded and differentiated in clear bottom 96-well plates (Corning®). After differentiation, cells were treated with or without […] AZD3965 for 24 hr, 48 hr or 72 hr as illustrated in FIG. 7 (schematic outline of experimental procedure). The cells were incubated in serum free media the night before performing the assay. The following day/morning, media was changed to serum and glucose free media for 2 hr prior to the experiment. Cells were then stimulated with 175 nM Insulin or vehicle (PBS) for 30 minutes. Glucose Uptake was measured using the Glucose Uptake-Glo™ Assay (Promega®) according to the manufacturer's protocol. The data generated were normalized by dividing the relative luminescence units (RLU) measured in insulin stimulated wells by vehicle treated controls. The aforementioned experiment was repeated in the presence of the CDK1 inhibitor, RO-3306 (10 μM), where indicated (FIG. 5C).
smiles,measurement,value
O=C1NC(=NCc2cccs2)S/C1=C\c1ccc2ncccc2c1 [RO-3306],insulin-stimulated glucose uptake under co-treatment,the effects of AZD3965 were attenuated

# From patent US12491187B2, “Use of MCT1 inhibitors to enhance insulin sensitivity” (H. LEE MOFFIT CANCER CENTER AND RESEARCH INSTITUTE, INC., priority 2022, dated 2025)
